Data taken from patent US20100167397A1, “ENDOCRINE CELL LINES AND METHOD OF USING THE SAME” (KYOWA HAKKO KOGYO CO., LTD., priority 2002, published 2010).

What was measured:
leptin receptor (Ob-Rb) [1] = target: T1, leptin receptor (Ob-Rb) (Rattus norvegicus, UniProt Q62959); assay: Leptin reactivity: immunostaining using an anti-STAT antibody (STAT3 transfer from cytoplasm to nucleus); assay type: cell-based; conditions: NC-6, NC-12 and AMN2-25; 100 nmol/L human leptin, 37° C., 15 minutes; without leptin cytoplasm was stained
T1 construct: endogenous in cells; host or cells: rat hypothalamus-derived immortalized lines NC-6, NC-12, AMN2-25
T1 sequence (Q62959 22-1162): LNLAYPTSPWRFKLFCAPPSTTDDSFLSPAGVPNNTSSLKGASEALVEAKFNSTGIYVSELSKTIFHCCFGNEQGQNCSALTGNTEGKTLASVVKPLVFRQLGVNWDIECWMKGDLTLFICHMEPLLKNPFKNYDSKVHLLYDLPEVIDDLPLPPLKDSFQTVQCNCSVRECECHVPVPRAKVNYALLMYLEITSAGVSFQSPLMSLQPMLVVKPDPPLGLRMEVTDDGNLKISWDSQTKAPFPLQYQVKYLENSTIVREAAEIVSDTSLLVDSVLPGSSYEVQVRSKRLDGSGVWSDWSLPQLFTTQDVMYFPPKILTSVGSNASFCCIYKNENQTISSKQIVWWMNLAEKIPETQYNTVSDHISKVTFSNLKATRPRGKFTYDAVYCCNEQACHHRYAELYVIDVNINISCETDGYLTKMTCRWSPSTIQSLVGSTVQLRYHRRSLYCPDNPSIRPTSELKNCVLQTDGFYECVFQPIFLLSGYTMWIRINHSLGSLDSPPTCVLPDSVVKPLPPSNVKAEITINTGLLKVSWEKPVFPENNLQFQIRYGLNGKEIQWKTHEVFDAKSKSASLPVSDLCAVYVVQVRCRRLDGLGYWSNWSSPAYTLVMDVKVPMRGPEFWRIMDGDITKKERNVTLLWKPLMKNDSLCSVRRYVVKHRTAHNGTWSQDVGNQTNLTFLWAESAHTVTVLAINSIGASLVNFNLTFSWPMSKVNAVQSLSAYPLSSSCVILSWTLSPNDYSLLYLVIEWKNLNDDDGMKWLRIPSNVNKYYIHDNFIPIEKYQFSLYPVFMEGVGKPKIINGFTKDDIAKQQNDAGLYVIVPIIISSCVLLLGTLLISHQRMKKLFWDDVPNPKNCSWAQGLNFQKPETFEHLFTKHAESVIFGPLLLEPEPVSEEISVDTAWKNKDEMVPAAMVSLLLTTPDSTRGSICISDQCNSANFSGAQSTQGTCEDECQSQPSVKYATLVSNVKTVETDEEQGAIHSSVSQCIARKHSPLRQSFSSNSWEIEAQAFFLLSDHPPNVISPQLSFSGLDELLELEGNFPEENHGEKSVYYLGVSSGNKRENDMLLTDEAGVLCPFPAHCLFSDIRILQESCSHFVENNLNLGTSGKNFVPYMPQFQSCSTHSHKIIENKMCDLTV
Description: In a cell line where expression of a leptin receptor (Ob-Rb) protein is confirmed by the method mentioned in Example 7, it was analyzed by the following method whether a functional Ob-Rb is expressed. The following method is a method where the fact that a transcription factor STAT3 is phosphorylated upon stimulation by leptin and is transferred from cytoplasm to nucleus is utilized.
NC-6, NC-12 and AMN2-25 expressing leptin receptor (Ob-Rb) protein are cultured according to the method mentioned in Example 1. After the cultivation, about 1×10^3 cells were plated on 8 chambers coated with CELL-TAK and cultured for 3 days where cultivation temperature was shifted from 33° C. to 37° C. […] After the cultivation, exchange to a DMEM/F-12 (-FCS) medium was conducted. After 2 hours from the exchange of the medium, the cells were stimulated with 100 nmol/L of human leptin (manufactured by R&D Systems) at 37° C. for 15 minutes.
After the stimulation, immunostaining was carried out using an anti-STAT antibody (manufactured by NEB) and a cyanine 3-labeled anti-rabbit IgG (secondary antibody) diluted to an extent of 200-fold. The immunostaining was carried out according to the manual of Phospho Plus Stat 3 (Tyr 705) Antibody it (NEB). […] After the staining, drying was conducted, mounting with a discoloration inhibitor solution was done and an observation under a fluorescence microscope was carried out.

leptin receptor (Ob-Rb) [2] = target: T1, leptin receptor (Ob-Rb); assay: Leptin reactivity: change in expression of c-fos gene and SOCS-3 gene by PCR; assay type: cell-based; conditions: NC-6, NC-12 and AMN2-25; 100 nmol/L human leptin, 0 minute, 30 minutes or 1 hour
Description: Expression of c-fos gene and SOCS-3 gene, which has been known to be increased in hypothalamic cells by leptin stimulation, was analyzed by the following method utilizing a PCR whereby the leptin reactivity of the cell line, which was confirmed to be expressing a functional OB-Rb in the above (1), was confirmed from another view.
NC-6, NC-12 and AMN2-25 were cultured according to the method mentioned in Example 1. After the cultivation, about 2×10^4 cells were plated on a 35-mm dish coated with poly-lysine and cultured out for 5 days by shifting the cultivation temperature from 33° C. to 37° C. […] After the cultivation, exchange to a DMEM/F-12 (-FCS) medium was done.
After 2 hours from the exchange of the medium, 100 nmol/L of human leptin (manufactured by R&D Systems) was added. After incubating at 37° C. for 0 minute, 30 minutes or 1 hour, total RNA was collected from each cell line using an RNeasy Mini Kit (manufactured by Qiagen). Single-stranded cDNA was synthesized from the total RNA according to the method mentioned in Example 6 and a PCR was carried out using the cDNA as a template. With regard to primers specific to c-fos gene, synthetic DNAs having the nucleotide sequences of SEQ ID NOS: 45 and 46 were used while, with regard to primers specific to SOCS-3 gene, synthetic DNAs having the nucleotide sequences of SEQ ID NOS: 47 and 48 were used. […]

sulfonylurea receptor [3] = assay: Intracellular Ca2+ rise on sulfonylurea in immortalized cell lines derived from hypothalamus (Fura-2AM, CAF-110); assay type: cell-based, rat; conditions: 0.5 mmol/L
Description: The immortalized cell lines (a mixture) derived from hypothalamus of female adult rat obtained in Example 3 were cultured by the method mentioned in Example 1. […] The resulting cells were washed with an HBSS buffer (manufactured by Gibco) twice and the cells were floated. Sulfonylurea (Tolbutamide; manufactured by Alexis) was added to about 1×10^6 cell to make its final concentration 0.5 mmol/L and a rise in Ca^2+ concentration in the cells was checked. Measurement of the Ca^2+ concentration in the cells was conducted using a CAF-110 instrument (manufactured by Nippon Bunko).
As same as in the above (1), reactivity of an immortalized cell line (single clone AMN2-25) derived from hypothalamus of male adult rat obtained in Example 3 with sulfonylurea was tested.

sulfonylurea receptor [4] = target: T2, sulfonylurea receptor (Rattus norvegicus, UniProt Q09429); assay: Intracellular Ca2+ rise on sulfonylurea in single clones derived from Langerhans islets (Fura-2AM); assay type: cell-based; conditions: single clones M-6, M-9, M-15, M-19, M-20, M-33, M-43, F-1 and F-9; 0.5 mmol/L
T2 construct: endogenous in cells; host or cells: rat islet-derived clones M-6, M-9, M-15, M-19, M-20, M-33, M-43, F-1, F-9
Description: About 5×10^6 cells of single clones (M-6, M-9, M-15, M-19, M-20, M-33, M-43, F-1 and F-9) of immortalized cell lines mentioned in Example 11 obtained using an RPMI 1640 (05918) medium were plated on a 60-mm dish and cultured at 33° C. for 2 days using an RPMI 1640 (05918) medium.
After the cultivation, it was washed with an HBSS buffer (manufactured by Gibco) for two times and the cells were floated. Sulfonylurea (Tolbutamide, manufactured by Alexis) was added to about 1×10^6 of the cells so as to make the final concentration 0.5 mmol/L whereupon an increase in Ca^2+ concentration in the cells was checked. Measurement of the Ca^2+ concentration in the cells was carried out using a CAF-100 instrument (manufactured by Nippon Bunko).

CRE reporter in GBCC13 = assay: Constitutive activity of GPCR, Method 2 (GBCC13 host, firefly luciferase); assay type: cell-based, human; conditions: activity with 17β-estradiol divided by activity without, control plasmid about 1
Description: After the incubation, Steady Glo Luciferase Assay System (manufactured by Promega) was added and firefly luciferase activity was measured. For the measurement of activity, Auto Lumat LB953 (manufactured by Berthold) or Top Count (Packard) was used. […] It is judged that the higher the induction ratio of the cells to which a GPCR expression plasmid was transfected, the stronger the constitutive activity of the GPCR.

CRE reporter in GBC7 = assay: Constitutive activity of GPCR, Method 4 (GBC7 host, firefly luciferase); assay type: cell-based, human; conditions: activity with 17β-estradiol divided by activity without, control plasmid about 1
Description: This is a measuring method for constitutive activity of GPCR which is the same as Method 2 except that GBC7 was used as a host and no puromycin was added in the incubation of the transformants.
(§1) In each method, the induction ratio of the cells transfected with the control plasmid was about 1. It is judged that the higher the induction ratio of the cells to which a GPCR expression plasmid was transfected, the stronger the constitutive activity of the GPCR.

CRE reporter in GBCR2 = assay: Constitutive activity of GPCR, Method 3 (GBCR2 host, Renilla reniformis luciferase); assay type: cell-based, human; conditions: activity with 17β-estradiol divided by activity without, control plasmid about 1
Description: This is a measuring method for constitutive activity of GPCR which is the same as Method 1 except that GBCR2 was used as a host and no puromycin was added in the incubation of the transformants.
as §1

T2 sequence (Q09429 whole entry): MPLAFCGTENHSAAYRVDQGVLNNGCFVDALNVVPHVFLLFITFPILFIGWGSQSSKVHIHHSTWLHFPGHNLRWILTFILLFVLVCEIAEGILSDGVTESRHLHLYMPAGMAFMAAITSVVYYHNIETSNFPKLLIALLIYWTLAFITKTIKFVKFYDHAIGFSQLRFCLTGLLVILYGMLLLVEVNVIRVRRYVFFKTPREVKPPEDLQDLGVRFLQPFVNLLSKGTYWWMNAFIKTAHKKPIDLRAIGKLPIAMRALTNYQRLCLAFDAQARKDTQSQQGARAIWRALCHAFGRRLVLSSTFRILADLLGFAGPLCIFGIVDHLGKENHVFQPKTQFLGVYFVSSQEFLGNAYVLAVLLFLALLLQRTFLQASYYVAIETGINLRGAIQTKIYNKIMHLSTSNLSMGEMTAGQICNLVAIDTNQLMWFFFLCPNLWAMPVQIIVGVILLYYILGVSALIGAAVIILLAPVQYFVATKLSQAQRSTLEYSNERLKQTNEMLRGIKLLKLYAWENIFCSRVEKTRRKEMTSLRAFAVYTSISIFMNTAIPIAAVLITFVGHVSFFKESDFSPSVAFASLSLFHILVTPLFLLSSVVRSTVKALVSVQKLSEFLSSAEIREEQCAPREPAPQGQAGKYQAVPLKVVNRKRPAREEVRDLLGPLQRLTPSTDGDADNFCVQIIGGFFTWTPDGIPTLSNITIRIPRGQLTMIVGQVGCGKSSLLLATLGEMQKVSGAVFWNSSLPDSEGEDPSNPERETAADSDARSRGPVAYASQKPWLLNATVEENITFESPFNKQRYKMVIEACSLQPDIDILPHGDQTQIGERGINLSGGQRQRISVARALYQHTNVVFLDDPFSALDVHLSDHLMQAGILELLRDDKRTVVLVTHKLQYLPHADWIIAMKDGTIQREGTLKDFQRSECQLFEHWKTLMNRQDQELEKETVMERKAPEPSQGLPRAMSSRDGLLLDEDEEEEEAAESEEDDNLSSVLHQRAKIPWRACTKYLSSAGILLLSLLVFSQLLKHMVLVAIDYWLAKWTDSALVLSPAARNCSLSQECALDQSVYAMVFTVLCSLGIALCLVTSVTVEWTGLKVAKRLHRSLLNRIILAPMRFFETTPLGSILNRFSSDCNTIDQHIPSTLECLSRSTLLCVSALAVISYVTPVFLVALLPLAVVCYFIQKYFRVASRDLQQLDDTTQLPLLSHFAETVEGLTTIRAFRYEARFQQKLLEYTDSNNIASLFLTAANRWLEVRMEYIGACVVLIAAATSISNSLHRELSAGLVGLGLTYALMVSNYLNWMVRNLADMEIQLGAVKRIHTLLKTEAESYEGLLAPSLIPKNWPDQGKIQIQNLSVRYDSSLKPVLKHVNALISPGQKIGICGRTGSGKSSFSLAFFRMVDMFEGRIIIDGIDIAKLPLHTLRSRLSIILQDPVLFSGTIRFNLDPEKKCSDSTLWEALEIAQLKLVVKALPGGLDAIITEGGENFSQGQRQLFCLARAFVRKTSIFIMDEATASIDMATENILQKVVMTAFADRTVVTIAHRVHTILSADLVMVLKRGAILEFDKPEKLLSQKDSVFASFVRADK
T2 sequence (P70673 whole entry partner): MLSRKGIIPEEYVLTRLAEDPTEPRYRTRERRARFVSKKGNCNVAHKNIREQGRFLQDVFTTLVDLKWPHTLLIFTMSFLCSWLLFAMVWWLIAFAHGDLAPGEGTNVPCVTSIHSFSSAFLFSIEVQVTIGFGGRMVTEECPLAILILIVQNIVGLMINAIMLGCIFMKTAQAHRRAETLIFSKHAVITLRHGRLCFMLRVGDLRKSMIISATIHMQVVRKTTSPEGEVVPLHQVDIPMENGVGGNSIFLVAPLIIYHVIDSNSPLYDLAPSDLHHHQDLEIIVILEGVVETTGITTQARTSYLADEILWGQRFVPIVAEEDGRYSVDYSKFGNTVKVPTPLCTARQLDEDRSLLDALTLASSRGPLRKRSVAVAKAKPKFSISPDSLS

## leptin: human leptin (manufactured by R&D Systems)
Leptin receptor (Ob-Rb) [1]
  STAT3 immunostaining upon stimulation with leptin: the area inside the nucleus was stained
Leptin receptor (Ob-Rb) [2]
  expression of SOCS-3 gene by stimulation with leptin: increased
  expression of c-fos gene by stimulation with leptin: increased

## CCCCNC(=O)NS(=O)(=O)c1ccc(C)cc1 [sulfonylurea, Tolbutamide]
Sulfonylurea receptor [3]; immortalized cell lines (a mixture) from hypothalamus of female adult rat
  rise in Ca2+ concentration in the cells: cell lines which reacted with sulfonylurea were present
Sulfonylurea receptor [3]; single clone AMN2-25
  Ca2+ concentration in the cell: increased
Sulfonylurea receptor [4]
  Ca2+ concentration in the cells: increased

## GPR 25
CRE reporter in GBCC13
  Constitutive Activity (induction ratio): 4.8-fold

## GPR 52
CRE reporter in GBC7
  Constitutive Activity (induction ratio): 40-fold

B1: GPR 12 (protein, UniProt P47775 1-334, looked up)
G-protein coupled receptor 12: MNEDLKVNLSGLPRDYLDAAAAENISAAVSSRVPAVEPEPELVVNPWDIVLCTSGTLISCENAIVVLIIFHNPSLRAPMFLLIGSLALADLLAGIGLITNFVFAYLLQSEATKLVTIGLIVASFSASVCSLLAITVDRYLSLYYALTYHSERTVTFTYVMLVMLWGTSICLGLLPVMGWNCLRDESTCSVVRPLTKNNAAILSVSFLFMFALMLQLYIQICKIVMRHAHQIALQHHFLATSHYVTTRKGVSTLAIILGTFAACWMPFTLYSLIADYTYPSIYTYATLLPATYNSIINPVIYAFRNQEIQKALCLICCGCIPSSLAQRARSPSDV
CRE reporter in GBCR2
  Constitutive Activity (induction ratio): 188-fold
